Experimental data published in the supplement of paper PMC10307832.

Key:
Assay in all cases: relative viability (nuclei count vs DMSO), 5 days (fraction); higher = more cells survive
[1] = tested on: 201T
Procedure, shortened: (§1)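 A single step with final 0.05% Triton X-100, 1% formaldehyde and 1 ug/ml Hoechst fixed the cells and stained nuclei 5 days after treatment. Lung cancer cell lines in 1536-well plates had been treated by pin tool the day after seeding with one drug alone or a fixed anchor-drug dose plus five library-drug doses (not always all listed) in √10 steps, and nuclei were counted on 4× images. Relative viability is the ratio of nuclei in treated wells to nuclei in vehicle wells, taken as the median of duplicate plates.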

[2] = tested on: COR-L23
Procedure, shortened: as §1

[3] = tested on: ChaGo-K-1
Procedure, shortened: as §1

[4] = tested on: HARA
Procedure, shortened: as §1

[5] = tested on: HCC-15
Procedure, shortened: as §1

[6] = tested on: HCC-366
Procedure, shortened: as §1

[7] = tested on: HCC-78
Procedure, shortened: as §1

[8] = tested on: LCLC-103H
Procedure, shortened: as §1

[9] = tested on: LCLC-97TM1
Procedure, shortened: as §1

[10] = tested on: LOU-NH91
Procedure, shortened: as §1

[11] = tested on: NCI-H1355
Procedure, shortened: as §1

[12] = tested on: NCI-H1734
Procedure, shortened: as §1

[13] = tested on: NCI-H1792
Procedure, shortened: as §1

[14] = tested on: NCI-H2009
Procedure, shortened: as §1

[15] = tested on: NCI-H2126
Procedure, shortened: as §1

[16] = tested on: NCI-H441
Procedure, shortened: as §1

[17] = tested on: NCI-H460
Procedure, shortened: as §1

[18] = tested on: NCI-H596
Procedure, shortened: as §1

[19] = tested on: NCI-H647
Procedure, shortened: as §1

[20] = tested on: NCI-H650
Procedure, shortened: as §1

[21] = tested on: PC-14
Procedure, shortened: as §1

COCC1(CO)C(=O)C2CCN1CC2 (centres undefined) [PRIMA-1MET] + CS(=O)(=O)N1CCN(Cc2cc3nc(-c4cccc5[nH]ncc45)nc(N4CCOCC4)c3s2)CC1 [Pictilisib] (partner 1 µM)
relative viability ([1]; first compound 0.2 µM): 0.709
relative viability ([1]; first compound 0.6325 µM): 0.593
relative viability ([1]; first compound 2 µM): 0.525
relative viability ([1]; first compound 6.325 µM): 0.741
relative viability ([1]; first compound 20 µM): 0.694
relative viability ([2]; first compound 0.2 µM): 0.77
relative viability ([2]; first compound 0.6325 µM): 0.76
relative viability ([2]; first compound 2 µM): 0.765
relative viability ([2]; first compound 6.325 µM): 0.786
relative viability ([2]; first compound 20 µM): 0.0196
relative viability ([3]; first compound 0.2 µM): 0.732
relative viability ([3]; first compound 0.6325 µM): 0.468
relative viability ([3]; first compound 2 µM): 0.84
relative viability ([3]; first compound 6.325 µM): 0.752
relative viability ([3]; first compound 20 µM): 0.328
relative viability ([4]; first compound 0.2 µM): 0.374
relative viability ([4]; first compound 0.6325 µM): 0.417
relative viability ([4]; first compound 6.325 µM): 0.446
relative viability ([4]; first compound 20 µM): 0.403
relative viability ([5]; first compound 0.2 µM): 0.511
relative viability ([5]; first compound 0.6325 µM): 0.582
relative viability ([5]; first compound 2 µM): 0.568
relative viability ([5]; first compound 6.325 µM): 0.638
relative viability ([5]; first compound 20 µM): 0.618
relative viability ([6]; first compound 0.2 µM): 0.204
relative viability ([6]; first compound 0.6325 µM): 0.118
relative viability ([6]; first compound 6.325 µM): 0.123
relative viability ([6]; first compound 20 µM): 0.0846
relative viability ([7]; first compound 0.2 µM): 0.226
relative viability ([7]; first compound 0.6325 µM): 0.222
relative viability ([7]; first compound 6.325 µM): 0.138
relative viability ([7]; first compound 20 µM): 0.0597
relative viability ([8]; first compound 0.2 µM): 0.612
relative viability ([8]; first compound 0.6325 µM): 0.583
relative viability ([8]; first compound 2 µM): 0.457
relative viability ([8]; first compound 6.325 µM): 0.583
relative viability ([8]; first compound 20 µM): 0.478
relative viability ([9]; first compound 0.2 µM): 0.127
relative viability ([9]; first compound 2 µM): 0.234
relative viability ([9]; first compound 6.325 µM): 0.135
relative viability ([9]; first compound 20 µM): 0.117
relative viability ([10]; first compound 0.2 µM): 0.573
relative viability ([10]; first compound 0.6325 µM): 0.474
relative viability ([10]; first compound 2 µM): 0.458
relative viability ([10]; first compound 6.325 µM): 0.467
relative viability ([10]; first compound 20 µM): 0.366
relative viability ([11]; first compound 0.2 µM): 0.366
relative viability ([11]; first compound 0.6325 µM): 0.35
relative viability ([11]; first compound 2 µM): 0.308
relative viability ([11]; first compound 6.325 µM): 0.36
relative viability ([11]; first compound 20 µM): 0.541
relative viability ([12]; first compound 0.2 µM): 0.446
relative viability ([12]; first compound 0.6325 µM): 0.465
relative viability ([12]; first compound 2 µM): 0.408
relative viability ([12]; first compound 6.325 µM): 0.386
relative viability ([12]; first compound 20 µM): 0.0877
relative viability ([13]; first compound 0.2 µM): 0.227
relative viability ([13]; first compound 0.6325 µM): 0.223
relative viability ([13]; first compound 2 µM): 0.222
relative viability ([13]; first compound 6.325 µM): 0.327
relative viability ([13]; first compound 20 µM): 0.271
relative viability ([14]; first compound 0.2 µM): 0.337
relative viability ([14]; first compound 0.6325 µM): 0.68
relative viability ([14]; first compound 2 µM): 0.506
relative viability ([14]; first compound 6.325 µM): 0.513
relative viability ([14]; first compound 20 µM): 0.0085
relative viability ([15]; first compound 0.2 µM): 0.459
relative viability ([15]; first compound 0.6325 µM): 0.485
relative viability ([15]; first compound 2 µM): 0.418
relative viability ([15]; first compound 6.325 µM): 0.548
relative viability ([15]; first compound 20 µM): 0.488
relative viability ([16]; first compound 0.2 µM): 0.504
relative viability ([16]; first compound 0.6325 µM): 0.325
relative viability ([16]; first compound 2 µM): 0.473
relative viability ([16]; first compound 6.325 µM): 0.411
relative viability ([16]; first compound 20 µM): 0.264
relative viability ([17]; first compound 0.2 µM): 0.31
relative viability ([17]; first compound 0.6325 µM): 0.359
relative viability ([17]; first compound 2 µM): 0.23
relative viability ([17]; first compound 6.325 µM): 0.357
relative viability ([17]; first compound 20 µM): 0.197
relative viability ([18]; first compound 0.2 µM): 0.406
relative viability ([18]; first compound 0.6325 µM): 0.389
relative viability ([18]; first compound 2 µM): 0.335
relative viability ([18]; first compound 6.325 µM): 0.379
relative viability ([18]; first compound 20 µM): 0.368
relative viability ([19]; first compound 0.2 µM): 0.523
relative viability ([19]; first compound 0.6325 µM): 0.384
relative viability ([19]; first compound 6.325 µM): 0.412
relative viability ([19]; first compound 20 µM): 0.165
relative viability ([20]; first compound 0.2 µM): 1.14
relative viability ([20]; first compound 2 µM): 0.867
relative viability ([20]; first compound 6.325 µM): 1.06
relative viability ([20]; first compound 20 µM): 0.111
relative viability ([21]; first compound 0.2 µM): 0.813
relative viability ([21]; first compound 0.6325 µM): 0.724
relative viability ([21]; first compound 2 µM): 0.692
relative viability ([21]; first compound 6.325 µM): 0.797
relative viability ([21]; first compound 20 µM): 0.401

COCC1(CO)C(=O)C2CCN1CC2 (centres undefined) [PRIMA-1MET] + C[C@@H](Oc1cc(-c2cnn(C3CCNCC3)c2)cnc1N)c1c(Cl)ccc(F)c1Cl [Crizotinib] (partner 1 µM)
relative viability ([1]; first compound 0.2 µM): 1.11
relative viability ([1]; first compound 0.6325 µM): 1
relative viability ([1]; first compound 2 µM): 0.901
relative viability ([1]; first compound 6.325 µM): 1.06
relative viability ([1]; first compound 20 µM): 1.04
relative viability ([2]; first compound 0.2 µM): 0.704
relative viability ([2]; first compound 0.6325 µM): 0.612
relative viability ([2]; first compound 2 µM): 0.61
relative viability ([2]; first compound 6.325 µM): 0.565
relative viability ([2]; first compound 20 µM): 0.0228
relative viability ([3]; first compound 0.2 µM): 1.31
relative viability ([3]; first compound 0.6325 µM): 0.898
relative viability ([3]; first compound 2 µM): 1.02
relative viability ([3]; first compound 6.325 µM): 1.15
relative viability ([3]; first compound 20 µM): 1.02
relative viability ([4]; first compound 0.2 µM): 1.17
relative viability ([4]; first compound 0.6325 µM): 1.04
relative viability ([4]; first compound 6.325 µM): 0.987
relative viability ([4]; first compound 20 µM): 0.99
relative viability ([5]; first compound 0.2 µM): 0.925
relative viability ([5]; first compound 0.6325 µM): 0.786
relative viability ([5]; first compound 2 µM): 0.802
relative viability ([5]; first compound 6.325 µM): 0.807
relative viability ([5]; first compound 20 µM): 0.706
relative viability ([6]; first compound 0.2 µM): 0.702
relative viability ([6]; first compound 0.6325 µM): 0.515
relative viability ([6]; first compound 6.325 µM): 0.506
relative viability ([6]; first compound 20 µM): 0.009
relative viability ([7]; first compound 0.2 µM): 0.427
relative viability ([7]; first compound 0.6325 µM): 0.34
relative viability ([7]; first compound 6.325 µM): 0.353
relative viability ([7]; first compound 20 µM): 0.0613
relative viability ([8]; first compound 0.2 µM): 1.16
relative viability ([8]; first compound 0.6325 µM): 1.05
relative viability ([8]; first compound 2 µM): 0.894
relative viability ([8]; first compound 6.325 µM): 1.11
relative viability ([8]; first compound 20 µM): 1.06
relative viability ([9]; first compound 0.2 µM): 0.494
relative viability ([9]; first compound 2 µM): 0.378
relative viability ([9]; first compound 6.325 µM): 0.234
relative viability ([9]; first compound 20 µM): 0.0997
relative viability ([10]; first compound 0.2 µM): 0.788
relative viability ([10]; first compound 0.6325 µM): 0.583
relative viability ([10]; first compound 2 µM): 0.743
relative viability ([10]; first compound 6.325 µM): 0.773
relative viability ([10]; first compound 20 µM): 0.681
relative viability ([11]; first compound 0.2 µM): 1.2
relative viability ([11]; first compound 0.6325 µM): 1.02
relative viability ([11]; first compound 2 µM): 0.897
relative viability ([11]; first compound 6.325 µM): 1.05
relative viability ([11]; first compound 20 µM): 1.03
relative viability ([12]; first compound 0.2 µM): 0.696
relative viability ([12]; first compound 0.6325 µM): 0.573
relative viability ([12]; first compound 2 µM): 0.614
relative viability ([12]; first compound 6.325 µM): 0.677
relative viability ([12]; first compound 20 µM): 0.171
relative viability ([13]; first compound 0.2 µM): 1.08
relative viability ([13]; first compound 0.6325 µM): 0.884
relative viability ([13]; first compound 2 µM): 1.1
relative viability ([13]; first compound 6.325 µM): 0.991
relative viability ([13]; first compound 20 µM): 0.971
relative viability ([14]; first compound 0.2 µM): 0.99
relative viability ([14]; first compound 0.6325 µM): 0.889
relative viability ([14]; first compound 2 µM): 1.09
relative viability ([14]; first compound 6.325 µM): 1.05
relative viability ([14]; first compound 20 µM): 0.295
relative viability ([15]; first compound 0.2 µM): 1.08
relative viability ([15]; first compound 0.6325 µM): 1.02
relative viability ([15]; first compound 2 µM): 0.957
relative viability ([15]; first compound 6.325 µM): 1.04
relative viability ([15]; first compound 20 µM): 1.04
relative viability ([16]; first compound 0.2 µM): 0.934
relative viability ([16]; first compound 0.6325 µM): 0.78
relative viability ([16]; first compound 2 µM): 0.646
relative viability ([16]; first compound 6.325 µM): 0.663
relative viability ([16]; first compound 20 µM): 0.362
relative viability ([17]; first compound 0.2 µM): 1.45
relative viability ([17]; first compound 0.6325 µM): 0.579
relative viability ([17]; first compound 2 µM): 0.898
relative viability ([17]; first compound 6.325 µM): 0.0132
relative viability ([17]; first compound 20 µM): 0.0052
relative viability ([18]; first compound 0.2 µM): 1.08
relative viability ([18]; first compound 0.6325 µM): 0.962
relative viability ([18]; first compound 2 µM): 0.863
relative viability ([18]; first compound 6.325 µM): 1.04
relative viability ([18]; first compound 20 µM): 0.174
relative viability ([19]; first compound 0.2 µM): 1
relative viability ([19]; first compound 0.6325 µM): 1.24
relative viability ([19]; first compound 2 µM): 1.09
relative viability ([19]; first compound 6.325 µM): 1.08
relative viability ([19]; first compound 20 µM): 0.896
relative viability ([20]; first compound 0.2 µM): 0.894
relative viability ([20]; first compound 2 µM): 0.616
relative viability ([20]; first compound 6.325 µM): 0.675
relative viability ([20]; first compound 20 µM): 0.109
relative viability ([21]; first compound 0.2 µM): 1.06
relative viability ([21]; first compound 0.6325 µM): 0.852
relative viability ([21]; first compound 2 µM): 0.853
relative viability ([21]; first compound 6.325 µM): 0.975
relative viability ([21]; first compound 20 µM): 1
